The text below walks through data of patent publication US20250171461A1, “STIMULATOR OF INTERFERON GENES (STING) MODULATORS, AND COMPOSITIONS AND METHODS THEREOF” (Geode Therapeutics Inc., priority 2022, published 2025).

The structures appear in SMILES notation.

The target of experiment [1] is T1, human HAQ STING isoform (hSTING HAQ) (Homo sapiens, UniProt Q86WV6, G230A/H232R/R293Q/R71H).
T1 construct: THP1 cells express the naturally occurring human HAQ STING isoform (hSTING HAQ); host or cells: THP1
T1 sequence (Q86WV6 whole entry R71H/G230A/H232R/R293Q, canonical isoform): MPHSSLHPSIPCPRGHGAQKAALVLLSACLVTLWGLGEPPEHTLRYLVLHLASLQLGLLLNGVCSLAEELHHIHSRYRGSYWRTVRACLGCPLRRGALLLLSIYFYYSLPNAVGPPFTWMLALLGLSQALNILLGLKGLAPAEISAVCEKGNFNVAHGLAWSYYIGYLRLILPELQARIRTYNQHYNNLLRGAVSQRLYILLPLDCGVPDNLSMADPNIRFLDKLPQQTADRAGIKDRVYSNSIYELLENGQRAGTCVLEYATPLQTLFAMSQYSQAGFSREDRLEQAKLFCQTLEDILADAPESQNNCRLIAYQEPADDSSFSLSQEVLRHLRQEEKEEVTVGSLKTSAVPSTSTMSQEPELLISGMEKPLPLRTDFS
As to the kind of experiment: IFN-β mRNA level in THP1 cells (qPCR, STING agonist cellular activity). The format is cell-based. Conditions: compound at 3.6 μM, 2 hrs, IFNβ expression normalized against GAPDH by the 2^-ΔΔCT method, DMSO = 1.0. The procedure, abridged: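 THP1 cells were seeded at 9×10^5 per well, incubated overnight, then treated with compound at 3.6 μM final (0.1% DMSO control) for 2 hrs at 37 °C. IFN-β mRNA was measured by SYBR Green qPCR, normalised to GAPDH by the 2^−ΔΔCT method, in triplicate.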
On the technique in general: Quantitative PCR measures a nucleic acid by following its amplification.

The next experiment addresses T2, hERG channel (Homo sapiens, UniProt Q12809).
T2 construct: host or cells: HEK 293
Description: hERG safety evaluation, manual whole cell patch clamp in hERG-expressing HEK 293 cells. The class given is cell-based. Conditions: hERG stably expressed HEK 293 cells, tail current, whole cell recording. How it is done:
(1) hERG stably expressed HEK 293 cell line (#60187) was purchased from BPS Bioscience and P3-P20 were used for the study. Cells were cultured in medium containing: 90% MEM, 10% FBS, 0.1 mM NEAA, 100 U/mL Penicillin-Streptomycin, 1 mM Na pyruvate and 500 μg/mL Geneticin. Cells are split about three times a week, and maintained between ˜40% to ˜80% confluence. 24 to 48 hours prior to recordings, the cells were plated on 0.05 mg/mL PDL pre-coated glass cover slips placed in 48-well plate at 1×10^4 cells. (2) The number of cells being plated on the cover slip should reach a confluence rate at which majority of the cells are single. (1) Test compounds were initially prepared in DMSO with final concentration of 10 mM as stock solution. (2) Compound was first made into 10, 3, 1, 0.3 and 0.1 mM DMSO stock, then serial diluted into the desired test concentrations in the extracellular solution (ECs). 30 uM test solution was diluted from 10 mM DMSO stock. The final DMSO concentration was in range of 0.1-0.3%. HEKA EPC 10 USB patch clamp amplifier (from HEKA Elektronik, Germany) was used in the whole cell recording. A cover slip with plenty of single HEK293 hERG cells on the surface was removed and placed into a continuously perfused (approximately 1 ml/minute) recording chamber mounted on an inverted microscope. HERG channel currents were recorded from single cells using standard whole cell recording techniques. The cells were voltage clamped at a holding potential of −80 mV. Then hERG current was activated by depolarizing at +30 mV for 5000 ms, after which the current was taken back to −50 mV for 5000 ms to remove the inactivation and observe the deactivating tail current. The K+ tail current through HERG channels observed during this step was allowed to stabilize under continuous bath perfusion. Cells were then superfused with drug until steady state block was achieved. Steady state was considered reached when three consecutive super-imposable current records were collected. At this point, cells were once again superfused with extracellular solution until the current amplitude returned to values close to those measured before application of drug. (1) Percent current inhibition was calculated using the following equation. (Note: PatchMaster was used to extract the peak current from the original data.) (2) The dose response curve of test compounds was plotted with % inhibition against the concentration of test compounds using Graphpad Prism 9.0, and fit the data to a log(inhibitor) vs. response—Variable slope curve.
(In general: hERG is a cardiac potassium channel; its block is linked to QT prolongation.)

T2 sequence (Q12809 whole entry): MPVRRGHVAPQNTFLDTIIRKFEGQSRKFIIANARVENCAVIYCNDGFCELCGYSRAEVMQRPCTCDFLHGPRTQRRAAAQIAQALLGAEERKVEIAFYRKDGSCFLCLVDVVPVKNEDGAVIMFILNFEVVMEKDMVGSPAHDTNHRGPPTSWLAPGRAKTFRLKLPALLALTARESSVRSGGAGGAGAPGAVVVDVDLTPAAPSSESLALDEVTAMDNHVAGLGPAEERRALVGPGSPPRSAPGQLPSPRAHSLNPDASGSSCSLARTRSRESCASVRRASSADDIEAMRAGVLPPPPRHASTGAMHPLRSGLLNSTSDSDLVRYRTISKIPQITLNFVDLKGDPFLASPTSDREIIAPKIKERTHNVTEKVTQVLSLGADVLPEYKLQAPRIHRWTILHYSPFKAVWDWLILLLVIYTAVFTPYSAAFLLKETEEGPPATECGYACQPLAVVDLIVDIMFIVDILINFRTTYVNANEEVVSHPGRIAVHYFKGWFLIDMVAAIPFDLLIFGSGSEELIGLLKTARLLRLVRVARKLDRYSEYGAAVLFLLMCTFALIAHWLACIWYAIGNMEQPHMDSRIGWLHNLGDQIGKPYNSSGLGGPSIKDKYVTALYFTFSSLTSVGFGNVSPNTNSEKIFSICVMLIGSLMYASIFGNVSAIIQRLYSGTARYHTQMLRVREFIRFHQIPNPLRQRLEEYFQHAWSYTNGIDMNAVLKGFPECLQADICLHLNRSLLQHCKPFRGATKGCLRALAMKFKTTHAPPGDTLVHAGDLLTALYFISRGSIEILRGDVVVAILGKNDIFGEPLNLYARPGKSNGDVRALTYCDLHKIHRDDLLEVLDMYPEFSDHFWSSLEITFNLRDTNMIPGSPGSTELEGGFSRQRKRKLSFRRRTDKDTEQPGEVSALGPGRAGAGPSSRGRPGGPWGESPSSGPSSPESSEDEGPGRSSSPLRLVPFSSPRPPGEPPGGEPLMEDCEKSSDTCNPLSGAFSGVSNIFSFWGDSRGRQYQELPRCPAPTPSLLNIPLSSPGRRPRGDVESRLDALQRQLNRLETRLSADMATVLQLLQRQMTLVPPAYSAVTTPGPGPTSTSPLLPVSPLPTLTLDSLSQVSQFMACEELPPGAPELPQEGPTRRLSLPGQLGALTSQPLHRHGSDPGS

A word on the IC50: it is the point on the concentration scale where inhibition reaches its midpoint. On to `COc1cc(CN(Cc2cn3c4c(c(N5CCN(C)CC5)c(F)cc4c2=O)OCC3C)[C@H]2CCCN(c3ccc(N)nc3)C2)ccn1` (stereo partly drawn) [Compound 29, 6-((((S)-1-(6-aminopyridin-3-yl)piperidin-3-yl)((2-methoxypyridin-4-yl)methyl)amino)methyl)-9-fluoro-3-methyl-10-(4-methylpiperazin-1-yl)-2H-[1,4]oxazino[2,3,4-ij]quinolin-7(3H)-one], for which, in experiment [1], the “Relative mRNA INFβ/GAPDH THP 1” value came out at 3330.1. On hERG channel, this compound had an IC50 of 34100 nM.
The like results for `COc1cc(CN(Cc2cn3c4c(c(F)c(F)cc4c2=O)OCC3C)[C@H]2CCCN(c3ccc(N)nc3)C2)ccn1` (stereo partly drawn) [Compound 1, 6-((((S)-1-(6-aminopyridin-3-yl)piperidin-3-yl)((2-methoxypyridin-4-yl)methyl)amino)methyl)-9,10-difluoro-3-methyl-2H-[1,4]oxazino[2,3,4-ij]quinolin-7(3H)-one] were, in that order, 447.9 and 1580 nM.
Regarding `COc1cc(CN(Cc2cn3c4c(c(F)c(F)cc4c2=O)CCC3)[C@H]2CCCN(c3ccc(N)nc3)C2)ccn1` [Compound 67, (S)-2-(((1-(6-aminopyridin-3-yl)piperidin-3-yl)((2-methoxypyridin-4-yl)methyl)amino)methyl)-8,9-difluoro-6,7-dihydro-1H,5H-pyrido[3,2,1-ij]quinolin-1-one], in experiment [1], the “Relative mRNA INFβ/GAPDH THP 1” value was 7398.9. The compound also gave a 50% inhibitory concentration (IC50) on hERG channel of 3080 nM.
The like results for `COc1cc(CN(Cc2cn3c4c(c(F)c(F)cc4c2=O)OCC3C(C)C)[C@H]2CCCN(c3ccc(N)nc3)C2)ccn1` (stereo partly drawn) [Compound 53, 6-((((S)-1-(6-aminopyridin-3-yl)piperidin-3-yl)((2-methoxypyridin-4-yl)methyl)amino)methyl)-9,10-difluoro-3-isopropyl-2H-[1,4]oxazino[2,3,4-ij]quinolin-7(3H)-one] were, in that order, 433.0 and 1270 nM.
The like results for `COCC1COc2c(F)c(F)cc3c(=O)c(CN(Cc4ccnc(OC)c4)[C@H]4CCCN(c5ccc(N)nc5)C4)cn1c23` (stereo partly drawn) [Compound 82, 6-((((S)-1-(6-aminopyridin-3-yl)piperidin-3-yl)((2-methoxypyridin-4-yl)methyl)amino)methyl)-9,10-difluoro-3-(methoxymethyl)-2,3-dihydro-7H-[1,4]oxazino[2,3,4-ij]quinolin-7-one] were, in that order, 349.0 and 3140 nM.
The like results for `COc1cc(CN(Cc2cn3c4c(c(F)c(F)cc4c2=O)SCC3)[C@H]2CCCN(c3ccc(N)nc3)C2)ccn1` [Compound 69, 9,10-difluoro-6-({[(3S)-1-(6-aminopyridin-3-yl)hexahydropyridin-3-yl][(2-methoxypyridin-4-yl)methyl]amino}methyl)-3,7-dihydro-2H-[1,4]thiazino[2,3,4-ij]quinolin-7-one] were, in that order, 9547.9 and 1940 nM.
Regarding `COc1cc(CN(Cc2cn3c4c(c(F)c(F)cc4c2=O)OCC3)[C@H]2CCCN(c3ccc(N)nc3)C2)ccn1` [Compound 66, (S)-6-(((1-(6-aminopyridin-3-yl)piperidin-3-yl)((2-methoxypyridin-4-yl)methyl)amino)methyl)-9,10-difluoro-2,3-dihydro-7H-[1,4]oxazino[2,3,4-ij]quinolin-7-one], the “Relative mRNA INFβ/GAPDH THP 1” value in experiment [1] turned out to be 7328.8. In addition, it took 2720 nM to reach half-maximal inhibition on hERG channel (IC50).
For `COc1cc(CN(Cc2cn3c4c(c(F)c(F)cc4c2=O)OCC3)[C@H]2CCCN(c3ccc([N+](=O)[O-])nc3)C2)ccn1` [Compound 65, (S)-9,10-difluoro-6-((((2-methoxypyridin-4-yl)methyl)(1-(6-nitropyridin-3-yl)piperidin-3-yl)amino)methyl)-2,3-dihydro-7H-[1,4]oxazino[2,3,4-ij]quinolin-7-one], the “Relative mRNA INFβ/GAPDH THP 1” value in experiment [1] was determined as 7.4.
The same measure, in the same setting: next, `COc1cc(CN(Cc2cn3c4c(c(F)c(F)cc4c2=O)SCC3)[C@H]2CCCN(c3ccc(NCC4CC4)nc3)C2)ccn1` [Compound 98, (S)-6-(((1-(6-((cyclopropylmethyl)amino)pyridin-3-yl)piperidin-3-yl)((2-methoxypyridin-4-yl)methyl)amino)methyl)-9,10-difluoro-2,3-dihydro-7H-[1,4]thiazino[2,3,4-ij]quinolin-7-one]: 301.6.
